Results taken from US20110070215A1 (priority 2009, published 2011).

Tested on: DU-145 cells
Format: cell-based, human

`C=C1[C@@H](C)[C@H]2[C@H](Cc3ccccc3)NC(=O)[C@]23[C@H](OC(C)=O)/C=C/[C@@](C)(O)C(=O)[C@@H](C)C/C=C/[C@H]3[C@@H]1O` [Cytochalasin-D] was tested, and the “Relative Wound Density at 24 Hours, Mean” value was 3.3 ± 0.2, the “Relative Wound Density at 24 Hours, Percent Relative to Media” value was 4% and the “effect on cell migration” value was “did not migrate”.
